This note sets out measurements from patent US20220054411A1, “MULTIPLE CONCENTRATE FORMULATION FOR MEDICAL PRODUCTS” (priority 2020, published 2022).

Converted amounts (≈) assume the structure as drawn.

Type in all cases: cell-based
Test [1] concerns Escherichia coli. Briefly: Minimal Inhibitory Concentration against Escherichia coli.
Test [2] relates to Staphylococcus Aureus. Briefly: Minimal Inhibitory Concentration against Staphylococcus Aureus.
The test system of test [3] is Pseudomonas Aeruginosa. Briefly: Minimal Inhibitory Concentration against Pseudomonas Aeruginosa.
The subject of test [4] is Staphylococcus epidermidis. Briefly: Minimal Inhibitory Concentration against Staphylococcus epidermidis. The note with it: at 24 hours.

`C/C=C/C=C/C(=O)O` [Sorbic Acid, sorbic acid]: the MIC in test [1] (pH 5, at 24 hours) is 312 µg/mL (≈ 2790 µM); in test [1] (pH 6, at 24 hours), 1250 µg/mL (≈ 11100 µM); in test [1] (pH 7, at 24 hours), greater than 5000 µg/mL; in test [2] (pH 5, at 24 hours), 156 µg/mL (≈ 1390 µM); in test [2] (pH 6, at 24 hours) it was 312 µg/mL (≈ 2790 µM); in test [2] (pH 7, at 24 hours) it was 1250 µg/mL (≈ 11100 µM).
With `CCCCCCCCCCCC(=O)OCC(O)CO` (centres unmarked) [Monolaurin, monolaurin], the “Minimal Inhibitory Concentration” value in test [3] is 62.5 micrograms per milliliter; in test [4] it was 1953 micrograms per milliliter; in test [1] (pH 5, at 24 hours), 500 micrograms per milliliter; in test [1] (pH 6, at 24 hours), 2,000 micrograms per milliliter; in test [1] (pH 7, at 24 hours), >4,000 micrograms per milliliter; in test [2] (pH 5, at 24 hours) it was 16 micrograms per milliliter. In addition, the “Minimal Inhibitory Concentration” value in test [2] (pH 6, at 24 hours) is 64 micrograms per milliliter; in test [2] (pH 7, at 24 hours), 128 micrograms per milliliter.
